Test results reported in PMC6881810, “Trichoderma reesei Dehydrogenase, a Pyrroloquinoline Quinone-Dependent Member of Auxiliary Activity Family 12 of the Carbohydrate-Active Enzymes Database: Functional and Structural Characterization” (Applied and Environmental Microbiology, 2019).

Biological target: T1, TrAA12 (Trichoderma reesei, UniProt G0RPY6)
T1 construct: gene AA12
Test: cytochrome c reduction at […] nm, Michaelis-Menten nonlinear fit
Format: biochemical
Settings: 50 uM cytochrome c, 4 uM PQQ, 1 mM CaCl2, 50 mM sodium acetate pH 5.5, 40 C; full cofactor occupancy assumed

T1 sequence (G0RPY6 24-430): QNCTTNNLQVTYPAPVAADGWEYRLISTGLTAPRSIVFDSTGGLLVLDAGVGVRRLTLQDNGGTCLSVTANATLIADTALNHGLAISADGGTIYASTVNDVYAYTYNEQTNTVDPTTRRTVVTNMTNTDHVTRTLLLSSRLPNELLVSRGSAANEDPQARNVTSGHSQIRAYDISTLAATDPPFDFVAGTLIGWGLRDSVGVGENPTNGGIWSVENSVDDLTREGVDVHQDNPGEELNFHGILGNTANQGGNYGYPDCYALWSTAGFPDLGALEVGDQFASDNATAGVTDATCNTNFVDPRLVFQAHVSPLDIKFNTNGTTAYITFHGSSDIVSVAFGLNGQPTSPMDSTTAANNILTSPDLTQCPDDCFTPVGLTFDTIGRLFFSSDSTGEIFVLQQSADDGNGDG

Km: 99.9 ± 9.7 mM
SMILES: C[C@@H]1OC(O)[C@@H](O)[C@H](O)[C@@H]1O (stereo partly drawn) [L-fucose]
